Values of other authors as cited in patent US20070232813A1, “Substituted Cyclohexadienals - Syntheses and Applications” (priority 2006, published 2007).

Columns and labels:
[1] = test system: Roseobacter sp.; details: at 100 μg, agar diffusion assay
[2] = test system: Sulfitobacter sp.; details: at 100 μg, agar diffusion assay

## CC(C)=CCCC1=CC=C(C=O)C(C)(CCC=C(C)C)C1 (centres unmarked) [citral dimer B, 6-Methyl-4,6-bis-(4-methyl-pent-3-enyl)-cyclohexa-1,3-dienecarbaldehyde]
[1]
  inhibition (anti-bacterial activity against Roseobacter sp.): 0.5 cm
[2]
  inhibition (anti-bacterial activity against Sulfitobacter sp.): 1.0 cm
